# Experimental data published in US9056844B2, “4-substituted-3-benzyloxy-bicyclo[3.1.0]hexane compounds as mGluR 2/3 antagonists” (Eli Lilly and Company, priority 2010, dated 2015).
# What was measured:
# [1] = molecular target: hERG channel (Homo sapiens, UniProt Q12809); assay: Off-target activity, known assay methods: hERG
# Excerpt: (§1) Further, certain compounds of the present invention show a lack of significant activity at other physiologically important receptors such as, but not limited to, the hERG channel, serotonin receptors (specifically 5-HT2A and 5-HT2B), muscarinic receptors (specifically M2), and iGluR receptors (specifically iGluR5).
# [2] = molecular target: T1, muscarinic receptor M2 (Homo sapiens, UniProt P08172); assay: Off-target activity, known assay methods: M2
# T1 sequence (P08172 1-466): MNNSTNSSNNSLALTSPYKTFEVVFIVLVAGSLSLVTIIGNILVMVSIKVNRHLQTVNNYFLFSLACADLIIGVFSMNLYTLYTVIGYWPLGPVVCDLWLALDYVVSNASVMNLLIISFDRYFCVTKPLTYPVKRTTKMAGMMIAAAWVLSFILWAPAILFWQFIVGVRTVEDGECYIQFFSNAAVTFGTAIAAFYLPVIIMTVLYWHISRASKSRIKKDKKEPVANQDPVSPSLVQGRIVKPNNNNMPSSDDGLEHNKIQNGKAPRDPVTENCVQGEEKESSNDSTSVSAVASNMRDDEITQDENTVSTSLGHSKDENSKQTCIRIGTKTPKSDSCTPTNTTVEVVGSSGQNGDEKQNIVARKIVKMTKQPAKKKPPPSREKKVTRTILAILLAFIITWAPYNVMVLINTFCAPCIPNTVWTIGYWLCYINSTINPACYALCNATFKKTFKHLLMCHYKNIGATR
# Excerpt: as §1
# Sequence of hERG channel (Q12809 whole entry): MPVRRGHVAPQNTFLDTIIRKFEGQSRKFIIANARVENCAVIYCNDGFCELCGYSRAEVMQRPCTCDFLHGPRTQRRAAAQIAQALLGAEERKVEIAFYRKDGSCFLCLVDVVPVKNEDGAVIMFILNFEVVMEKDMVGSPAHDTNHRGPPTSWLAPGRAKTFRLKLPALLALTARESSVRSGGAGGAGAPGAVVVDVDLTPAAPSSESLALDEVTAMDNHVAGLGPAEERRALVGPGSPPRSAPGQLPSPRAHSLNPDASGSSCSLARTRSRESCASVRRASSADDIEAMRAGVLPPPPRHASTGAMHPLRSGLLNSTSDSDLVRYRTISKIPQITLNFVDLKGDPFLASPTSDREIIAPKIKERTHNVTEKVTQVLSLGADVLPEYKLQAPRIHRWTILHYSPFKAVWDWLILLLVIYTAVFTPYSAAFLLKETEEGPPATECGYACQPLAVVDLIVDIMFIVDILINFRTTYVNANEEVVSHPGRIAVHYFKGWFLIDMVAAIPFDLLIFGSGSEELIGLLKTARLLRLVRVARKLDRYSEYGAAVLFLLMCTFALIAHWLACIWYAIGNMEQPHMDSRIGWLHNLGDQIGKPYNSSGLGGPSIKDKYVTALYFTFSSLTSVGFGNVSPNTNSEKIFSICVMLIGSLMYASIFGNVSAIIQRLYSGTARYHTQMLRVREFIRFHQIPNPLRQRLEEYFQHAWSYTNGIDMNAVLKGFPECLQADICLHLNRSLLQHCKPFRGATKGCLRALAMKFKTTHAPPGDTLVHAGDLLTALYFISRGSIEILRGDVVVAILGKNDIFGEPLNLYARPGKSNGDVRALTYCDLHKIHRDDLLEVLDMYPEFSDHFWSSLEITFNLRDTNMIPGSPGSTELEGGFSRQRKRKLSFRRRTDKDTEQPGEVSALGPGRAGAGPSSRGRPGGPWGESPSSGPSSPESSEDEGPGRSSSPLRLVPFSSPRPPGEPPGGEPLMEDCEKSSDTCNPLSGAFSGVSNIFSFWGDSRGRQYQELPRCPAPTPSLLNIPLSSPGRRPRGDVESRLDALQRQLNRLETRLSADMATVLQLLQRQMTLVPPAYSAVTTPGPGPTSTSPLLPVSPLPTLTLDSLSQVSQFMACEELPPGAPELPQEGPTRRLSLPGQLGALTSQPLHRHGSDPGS
smiles,measurement,setting,value
"N[C@]1(C(=O)O)[C@@H]2[C@@H](C(=O)O)[C@@H]2[C@H](O)[C@H]1OCc1ccc(Cl)c(Cl)c1 [Example 1, (1S,2R,3S,4S,5R,6R)-2-Amino-3-[(3,4-dichlorobenzyl)oxy]-4-hydroxybicyclo[3.1.0]hexane-2,6-dicarboxylic acid]",activity at the hERG channel,[1],no appreciable activity
same,activity at M2,[2],no appreciable activity
